# According to ChEMBL document CHEMBL3046091, “Synthesis and antimicrobial activities of 2-azetidinyl-4-quinazolinone derivatives of diclofenac analogue” (2011):
# Columns and labels:
# Format in all cases: functional
# [1] = test system: Bacillus subtilis; assay: Antibacterial activity against Bacillus subtilis ATCC 6633 at 100 ug/ml by cup-plate method; conditions: read-out: IZ
# [2] = test system: Pseudomonas aeruginosa; assay: Antibacterial activity against Pseudomonas aeruginosa ATCC 9027 at 50 to 100 ug/ml by cup-plate method
# [3] = test system: Escherichia coli; assay: Antibacterial activity against Escherichia coli ATCC 25922 at 50 to 100 ug/ml by cup-plate method
# [4] = test system: Staphylococcus aureus; assay: Antibacterial activity against Staphylococcus aureus ATCC 9144 at 100 ug/ml by cup-plate method; conditions: read-out: IZ
# [5] = test system: Pseudomonas aeruginosa; assay: Antibacterial activity against Pseudomonas aeruginosa ATCC 9027 at 100 ug/ml by cup-plate method; conditions: read-out: IZ
# [6] = test system: Escherichia coli; assay: Antibacterial activity against Escherichia coli ATCC 25922 at 50 ug/ml by cup-plate method; conditions: read-out: IZ
# [7] = test system: Staphylococcus aureus; assay: Antibacterial activity against Staphylococcus aureus ATCC 9144 at 50 to 100 ug/ml by cup-plate method
# [8] = test system: Bacillus subtilis; assay: Antibacterial activity against Bacillus subtilis ATCC 6633 at 50 ug/ml by cup-plate method; conditions: read-out: IZ
# [9] = test system: Candida albicans; assay: Antifungal activity against Candida albicans ATCC 10231 at 100 ug/ml by cup-plate method; conditions: read-out: IZ
# [10] = test system: Escherichia coli; assay: Antibacterial activity against Escherichia coli ATCC 25922 at 100 ug/ml by cup-plate method; conditions: read-out: IZ
# [11] = test system: Pseudomonas aeruginosa; assay: Antibacterial activity against Pseudomonas aeruginosa ATCC 9027 at 50 ug/ml by cup-plate method; conditions: read-out: IZ
# [12] = test system: Candida albicans; assay: Antifungal activity against Candida albicans ATCC 10231 at 50 ug/ml by cup-plate method; conditions: read-out: IZ
# [13] = test system: Bacillus subtilis; assay: Antibacterial activity against Bacillus subtilis ATCC 6633 at 50 to 100 ug/ml by cup-plate method
# [14] = test system: Staphylococcus aureus; assay: Antibacterial activity against Staphylococcus aureus ATCC 9144 at 50 ug/ml by cup-plate method; conditions: read-out: IZ
SMILES,zone of inhibition at 100 µg/mL [1] [mm],Activity [2] [%],Activity [3] [%],zone of inhibition at 100 µg/mL [4] [mm],zone of inhibition at 100 µg/mL [5] [mm],zone of inhibition at 50 µg/mL [6] [mm],Activity [7] [%],zone of inhibition at 50 µg/mL [8] [mm],zone of inhibition at 100 µg/mL [9] [mm],zone of inhibition at 100 µg/mL [10] [mm],zone of inhibition at 50 µg/mL [11] [mm],zone of inhibition at 50 µg/mL [12] [mm],Activity [13] [%],zone of inhibition at 50 µg/mL [14] [mm]
O=C1C(Cl)C(c2cccc([N+](=O)[O-])c2)N1c1ccc(-n2c(Cc3ccccc3Nc3c(Cl)cccc3Cl)nc3ccc(Br)cc3c2=O)cc1 (stereo unspecified),4,36.75,32.65,3,4,2,29.73,2,2,4,2,1,32.65,1
CCN(CC)c1ccc(C2C(Cl)C(=O)N2c2ccc(-n3c(Cc4ccccc4Nc4c(Cl)cccc4Cl)nc4ccc(Br)cc4c3=O)cc2)c(O)c1 (stereo unspecified),0,0,0,0,0,0,0,0,0,0,0,0,0,0
CCN(CC)c1ccc(/C=N/c2ccc(-n3c(Cc4ccccc4Nc4c(Cl)cccc4Cl)nc4ccc(Br)cc4c3=O)cc2)c(O)c1,0,0,0,0,0,0,0,0,0,0,0,0,0,0
O=C1C(Cl)C(c2ccccc2[N+](=O)[O-])N1c1ccc(-n2c(Cc3ccccc3Nc3c(Cl)cccc3Cl)nc3ccc(Br)cc3c2=O)cc1 (stereo unspecified),6,46.93,37.56,4,6,3,36.75,3,2,5,3,1,42.68,2
O=C1C(Cl)C(c2ccccc2O)N1c1ccc(-n2c(Cc3ccccc3Nc3c(Cl)cccc3Cl)nc3ccc(Br)cc3c2=O)cc1 (stereo unspecified),6,50,43.53,6,6,3,50.98,3,0,6,4,0,42.68,3
O=C1C(Cl)C(c2ccc(O)cc2)N1c1ccc(-n2c(Cc3ccccc3Nc3c(Cl)cccc3Cl)nc3ccc(Br)cc3c2=O)cc1 (stereo unspecified),5,58.33,37.89,5,7,2,44.44,3,0,5,4,0,35.08,3
O=C1C(Cl)C(c2ccccc2Cl)N1c1ccc(-n2c(Cc3ccccc3Nc3c(Cl)cccc3Cl)nc3ccc(Br)cc3c2=O)cc1 (stereo unspecified),6,58.33,44.56,8,7,3,65.76,3,3,6,4,2,41.48,4
O=C1C(Cl)C(c2ccc(Cl)cc2)N1c1ccc(-n2c(Cc3ccccc3Nc3c(Cl)cccc3Cl)nc3ccc(Br)cc3c2=O)cc1 (stereo unspecified),8,61.79,51.09,8,8,3,66.67,5,5,7,5,2,57.44,5
COc1ccc(C2C(Cl)C(=O)N2c2ccc(-n3c(Cc4ccccc4Nc4c(Cl)cccc4Cl)nc4ccc(Br)cc4c3=O)cc2)cc1 (stereo unspecified),8,65.76,53.33,8,8,4,60.94,4,4,8,4,2,57.14,4
COc1cc(C2C(Cl)C(=O)N2c2ccc(-n3c(Cc4ccccc4Nc4c(Cl)cccc4Cl)nc4ccc(Br)cc4c3=O)cc2)cc(OC)c1OC (stereo unspecified),7,58.33,50,7,7,3,58.33,5,2,7,4,1,46.48,4
COc1ccc(C2C(Cl)C(=O)N2c2ccc(-n3c(Cc4ccccc4Nc4c(Cl)cccc4Cl)nc4ccc(Br)cc4c3=O)cc2)c(O)c1 (stereo unspecified),7,50.98,50,7,6,4,58.33,4,1,7,3,0,44.69,4
CN(C)c1ccc(C2C(Cl)C(=O)N2c2ccc(-n3c(Cc4ccccc4Nc4c(Cl)cccc4Cl)nc4ccc(Br)cc4c3=O)cc2)cc1 (stereo unspecified),0,0,0,0,0,0,0,0,1,0,0,0,0,0
COc1ccc(/C=N/c2ccc(-n3c(Cc4ccccc4Nc4c(Cl)cccc4Cl)nc4ccc(Br)cc4c3=O)cc2)c(O)c1,7,38.83,42.86,6,4,4,50,4,0,6,2,0,47.81,4
CN(C)c1ccc(/C=N/c2ccc(-n3c(Cc4ccccc4Nc4c(Cl)cccc4Cl)nc4ccc(Br)cc4c3=O)cc2)cc1,0,0,0,0,0,0,0,0,1,0,0,0,0,0
C[C@@H]1[C@H](O)[C@@H](C)/C=C/C=C/C=C/C=C/C=C/C=C/C=C/[C@H](O[C@@H]2O[C@H](C)[C@@H](O)[C@H](N)[C@@H]2O)C[C@@H]2O[C@](O)(C[C@@H](O)C[C@@H](O)[C@H](O)CC[C@@H](O)C[C@@H](O)CC(=O)O[C@H]1C)C[C@H](O)[C@H]2C(=O)O [AMPHOTERICIN B],,,,,,,,,9,,,4,,
CC1(C)S[C@@H]2[C@H](NC(=O)Cc3ccccc3)C(=O)N2[C@H]1C(=O)O [PENICILLIN G],14,,,12,12,7,,7,,14,6,,,6
